The values that follow come from patent publication US20130079345A1, “[…] ACTIVE DISUBSTITUTED TRIAZINE DERIVATIVES” (BAYER INTELLECTUAL PROPERTY GMBH, priority 2010, published 2013).

As a reminder, the IC50 is the midpoint of a concentration-inhibition curve.

Some results are limits rather than exact numbers.

In one assay the target is T1, CDK9/CycT1 (Homo sapiens, UniProt P50750).
T1 construct: Recombinant full-length His-tagged human CDK9 and CycT1; His; purchased Invitrogen PV4131; host or cells: insect cells
T1 sequence (P50750 whole entry): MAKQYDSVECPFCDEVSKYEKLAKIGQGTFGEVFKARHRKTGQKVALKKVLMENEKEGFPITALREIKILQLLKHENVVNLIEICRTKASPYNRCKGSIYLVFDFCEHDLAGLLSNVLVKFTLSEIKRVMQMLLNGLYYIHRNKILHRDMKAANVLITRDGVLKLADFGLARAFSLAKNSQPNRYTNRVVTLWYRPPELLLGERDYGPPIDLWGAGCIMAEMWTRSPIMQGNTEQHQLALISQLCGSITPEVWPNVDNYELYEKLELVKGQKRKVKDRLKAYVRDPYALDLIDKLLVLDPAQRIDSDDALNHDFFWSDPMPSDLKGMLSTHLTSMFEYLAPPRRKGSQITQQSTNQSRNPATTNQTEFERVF
T1 sequence (O60563 whole entry partner): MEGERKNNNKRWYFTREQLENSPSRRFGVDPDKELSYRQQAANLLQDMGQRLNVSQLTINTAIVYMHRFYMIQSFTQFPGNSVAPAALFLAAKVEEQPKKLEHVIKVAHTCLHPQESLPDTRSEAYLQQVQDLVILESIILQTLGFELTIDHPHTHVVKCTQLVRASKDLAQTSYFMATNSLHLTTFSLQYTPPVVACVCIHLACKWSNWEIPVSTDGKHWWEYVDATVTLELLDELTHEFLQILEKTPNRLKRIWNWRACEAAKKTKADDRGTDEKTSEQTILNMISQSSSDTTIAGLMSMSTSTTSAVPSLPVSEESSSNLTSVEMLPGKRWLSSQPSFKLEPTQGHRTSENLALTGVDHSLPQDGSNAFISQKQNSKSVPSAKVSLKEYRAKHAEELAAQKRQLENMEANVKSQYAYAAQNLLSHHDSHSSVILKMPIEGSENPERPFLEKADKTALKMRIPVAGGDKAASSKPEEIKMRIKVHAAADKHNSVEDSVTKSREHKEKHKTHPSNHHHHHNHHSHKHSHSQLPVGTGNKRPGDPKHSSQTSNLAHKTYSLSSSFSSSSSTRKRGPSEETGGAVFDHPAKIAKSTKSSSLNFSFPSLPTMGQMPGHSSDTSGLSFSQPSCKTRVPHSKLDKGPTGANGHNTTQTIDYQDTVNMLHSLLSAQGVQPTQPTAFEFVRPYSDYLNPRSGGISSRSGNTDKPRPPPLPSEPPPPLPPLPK
Description: CDK9/CycT1 kinase assay (TR-FRET). It counts as biochemical. The conditions noted are these: ATP 10 μM. An excerpt:
CDK9/CycT1-inhibitory activity of compounds of the present invention was quantified employing the CDK9/CycT1 TR-FRET assay as described in the following paragraphs.
Recombinant full-length His-tagged human CDK9 and CycT1, expressed in insect cells and purified by Ni-NTA affinity chromatography, were purchased from Invitrogen (catalogue number PV4131). A biotinylated peptide biotin-Ttds-[…] (C-terminus in amide form), which can be purchased from e.g the company JERINI Peptide Technologies (Berlin, Germany), was used as a substrate for the kinase reaction.
(§1) For the assay, 50 nl of a 100-fold concentrated solution of the test compound in DMSO was pipetted into a well of a black low-volume 384-well microtiter plate (Greiner Bio-One, Frickenhausen, Germany), 2 μl of a solution of CDK9/CycT1 in aqueous assay buffer [50 mM Tris/HCl pH 8.0], 10 mM MgCl2, 1.0 mM dithiothreitol, 0.1 mM sodium ortho-vanadate, 0.01% (v/v) Nonidet-P40 (Sigma)] were added. The mixture was incubated at 22° C. for 15 min to allow pre-binding of the test compounds to the enzyme before the start of the kinase reaction. […] The resulting mixture was incubated at 22° C. for a reaction time of 25 minutes. The concentration of CDK9/CycT1 was adjusted depending of the activity of the enzyme lot and was chosen appropriately for measurements in the linear range of the assay. Typical concentrations were in the range of 1 μg/ml. The reaction was stopped by the addition of 5 μl of a solution of TR-FRET detection reagents (0.2 μM streptavidine-XL and 1 nM anti-RB(pSer807/pSer811)-antibody from BD Pharmingen [#558389] and 1.2 nM LANCE EU-W1024 labeled anti-mouse IgG antibody [Perkin-Elmer, product no. AD0077]) in an aqueous EDTA-solution (100 mM EDTA, 0.2% (w/v) bovine serum albumin in 100 mM HEPES/NaOH, pH 7.0).
(§2) The resulting mixture was incubated at 22° C. for one hour to allow the formation of a complex between the phosphorylated biotinylated peptide and the detection reagents. Subsequently, the amount of phosphorylated substrate was evaluated by measurement of the resonance energy transfer from the Eu-chelate to the streptavidine-XL. Therefore, the fluorescence emissions at 620 nm and 665 nm after excitation at 350 nm were measured in a HTRF reader, e.g. a Rubystar (BMG Labtechnologies, Offenburg, Germany) or a Viewlux (Perkin-Elmer). The ratio of the emissions at 665 nm and at […] was taken as a measure for the amounts of phosphorylated substrate. The data were normalised, i.e. enzyme reaction without inhibitor corresponds to 0% inhibition, and all other assay components in the absence of the enzyme correspond to 100% inhibition. IC50 values were calculated by a 4-parameter fit using in-house software.

The next assay deals with T2, CDK2/CycE (Homo sapiens, UniProt P24941).
T2 construct: GST; purchased ProQinase GmbH (Freiburg, Germany); host or cells: insect cells (Sf-9)
Description: CDK2/CycE kinase assay (TR-FRET). The conditions noted are these: ATP 10 μM. Type of assay: biochemical.
Excerpt: CDK2/CycE-inhibitory activity of compounds of the present invention was quantified employing the CDK2/CycE TR-FRET assay as described in the following paragraphs.
Recombinant fusion proteins of glutathione S-transferase (GST) and human CDK2 and of GST and human CycE, expressed in insect cells (Sf-9) and purified by glutathion-sepharose affinity chromatography, were purchased from ProQinase GmbH (Freiburg, Germany). A biotinylated peptide biotin-Ttds-[…] (C-terminus in amide form), which can be purchased from e.g the company JERINI Peptide Technologies (Berlin, Germany), was used as a substrate for the kinase reaction.
as §1, with “of CDK2/CycE” for “of CDK9/CycT1”, “for” for “for a reaction time of”, “depending on” for “depending of”, “of 130 ng/ml.” for “of 1 μg/ml.”
as §2, with “measuring” for “measurement of”, “high time-resolved fluorometry (HTRF)” for “HTRF”

Consider `NS(=O)(=O)Cc1cccc(Nc2ncnc(-c3ccc(F)cc3OCC3CC3)n2)c1` [Compound U5, 1-[3-({4-[2-(cyclopropylmethoxy)-4-fluorophenyl]-1,3,5-triazin-2-yl}amino)phenyl]methanesulfonamide], for which the half-maximal inhibitory concentration (IC50) against CDK9/CycT1 (values in nM) is 34 nM; on CDK2/CycE (values given in μM), 1.6 µM.

As to `NC(=O)c1ccc(Nc2ncnc(-c3ccccc3NC(=O)c3ccccc3)n2)cc1` [Ref5, 4-[4-(2-Benzoylaminophenyl)-[1,3,5]triazin-2-ylamino]benzamide, reference compound], the IC50 was 8400 nM against CDK9/CycT1 (values given in μM) and 14 µM at CDK2/CycE (values given in μM).

In the case of `COc1c(-c2ncnc(Nc3cccc(CS(N)(=O)=O)c3)n2)ccc(F)c1F` [Compound U6, 1-(3-{[4-(3,4-difluoro-2-methoxyphenyl)-1,3,5-triazin-2-yl]amino}phenyl)methanesulfonamide], the IC50 against CDK9/CycT1 (values in nM) is 370 nM; on CDK2/CycE (values given in μM) it was 12 µM.

Turning to `NS(=O)(=O)Cc1cccc(Nc2ncnc(-c3ccc(F)cc3C(F)(F)F)n2)c1` [Compound U1, 1-[3-({4-[4-fluoro-2-(trifluoromethyl)phenyl]-1,3,5-triazin-2-yl}amino)phenyl]methanesulfonamide], the IC50 at CDK9/CycT1 (values given in μM) amounted to 15000 nM; on CDK2/CycE (values given in μM), 15 µM.

As for `CC(=O)Nc1cc(F)ccc1-c1ncnc(Nc2cccc(CS(N)(=O)=O)c2)n1` [Compound U4, N-[5-fluoro-2-(4-{[3-(sulfamoylmethyl)phenyl]amino}-1,3,5-triazin-2-yl)phenyl]acetamide], the IC50 at CDK9/CycT1 (values given in μM) stood at 3600 nM; at CDK2/CycE (values given in μM), 3 µM.

Regarding `COc1ccccc1-c1ncnc(Nc2cccc(S(N)(=O)=O)c2)n1` [Compound C1, 3-[(4-(2-Methoxyphenyl)-1,3,5-triazin-2-yl)amino]benzenesulfonamide], the IC50 is 10 nM at CDK9/CycT1 (values in nM) and 0.45 µM at CDK2/CycE (values in nM).

Consider `Cc1ccc(Cl)cc1-c1ncnc(Nc2ccc(Cl)cc2)n1` [Ref3, [6-(5-Chloro-2-methyl-phenyl)-[1,3,5]triazin-4-yl]-(4-chloro-phenyl)-amine, reference compound], for which the IC50 was more than 20000 nM against CDK9/CycT1 (values given in μM) and more than 20 µM against CDK2/CycE (values given in μM).
